How the values were obtained:
Type in all cases: cell-based, human
[1] = tested on: AFXζ-induced PEPCK IRS-SEAP activity; assay: PEPCK IRS-SEAP reporter assay in HepG2 cells transfected with AFXζ
Method: (§1) FIG. 4. Effect of insulin on the transcriptional activity of AFXζ. HepG2 cells were transiently transfected with pcDNA6/His-AFXζ and PEPCK p-SEAP (A) or PEPCK IRS-SEAP (B). Twenty-four hours after transfection, cells were treated with insulin at the indicated concentration in fresh media and incubated for another 15-18 hours. SEAP and β-galactosidase activities were measured. The relative activation levels were standardized by comparison to the reporter activity from transfected cells without insulin treatment (A) or untreated cells transfected with the reporter alone (B). All values represent the means±S.D. of 3 independent experiments.
(§2) FIG. 6. Effect of AICAR on the transcriptional activity of AFXζ. A. HepG2 cells were transiently transfected with AFXζ and PEPCK p-SEAP (A) or PEPCK IRS-SEAP (B). Twenty-four hours after transfection, cells were treated with AICAR at indicated concentration in fresh media and incubated for another 15-18 hours. SEAP and β-galactosidase activities were measured. The relative activation levels were standardized by comparison to the activity from cells without AICAR treatment (A) or untreated cells transfected with the reporter alone (B). All values represent the means±S.D. of 3 independent experiments.
Double-stranded DNA fragments containing each of the IRS elements from the promoters of PEPCK, IGFBP- 1 and G6Pase were cloned into the Nhe I/Bgl II site of pSEAP2-promoter vector (Clontech). Dissected fragments of the PEPCK and IGFBP-1 IRS elements, referred as PEPCK-a, PEPCK-b and IGFBP-1a, IGFBP-1b, respectively, were cloned into the same site of pSEAP2-promoter. […]
The human hepatoma cell line HepG2 was cultured in Dulbecco's Modified Eagle's Medium (DMEM) with 10% Fetal Bovine Serum (FBS, Life Technologies). […] Secreted alkaline phosphatase (SEAP) and β-galactosidase activities were measured using Phospha-Light and Galacto-Star systems (Tropix Inc., Bedford, Mass.), respectively.

[2] = tested on: AFXζ-induced PEPCK p-SEAP activity; assay: PEPCK p-SEAP reporter assay in HepG2 cells transfected with AFXζ
Method: as §1
FIG. 5. Effect of bpV (peroxovanadate) and PKB on the transcriptional activity of AFXζ. A. HepG2 cells were transiently transfected with PEPCK p-SEAP and pcDNA6/His-AFXζ. Twenty-four hours after transfection, cells were treated with bpV at the indicated concentration in fresh media and were incubated for another 15-18 hours. The relative activation level was standardized by comparison to the reporter activity from transfection without bpV treatment. B. HepG2 cells were transiently cotransfected with the reporter constructs and pcDNA6/His-AFXζ with (filled bars) or without (open bars) the plasmid encoding myr-Akt1, which constitutively expresses active PKB. Forty-eight hours after transfection, SEAP and β-galactosidase activities were measured. The relative activation levels were standardized comparing with the activity from corresponding transfection with reporter alone. All values represent the means±S.D. of 3 independent experiments.
as §2
Double-stranded DNA fragments containing each of the IRS elements from the promoters of PEPCK, IGFBP- 1 and G6Pase were cloned into the Nhe I/Bgl II site of pSEAP2-promoter vector (Clontech). Dissected fragments of the PEPCK and IGFBP-1 IRS elements, referred as PEPCK-a, PEPCK-b and IGFBP-1a, IGFBP-1b, respectively, were cloned into the same site of pSEAP2-promoter. In addition, a 501 bp fragment corresponding to the human PEPCK 5′ regulatory sequence (−458 to +43 relative to the transcription start site, abbreviated as PEPCK p) was cloned into the Bgl II/EcoR I site of the same vector. […]

[3] = tested on: HepG2 cells
Method: The human hepatoma cell line HepG2 was cultured in Dulbecco's Modified Eagle's Medium (DMEM) with 10% Fetal Bovine Serum (FBS, Life Technologies). Transient transfection experiments were performed in DMEM supplemented with 10% dialyzed FBS in 24-well plates. A DNA construct (0.2 μg unless otherwise specified) corresponding to IRS-SEAP, pcDNA6/His-AFXα or -AFXζ and CMV-β was added. Each set of reporter assay includes a transfection in which no AFX expression construct was added. In experiments where PKB effect was tested, 0.2 μg myr-Aktl in pUSEamp(+) (Upstate Biotechnology, Lake Placid, N.Y.), which constitutively expresses activated PKB, was included. Lipofectamine 2000 reagent (Life Technologies) was used for DNA transfection following the manufacturer's instruction. For experiment in which the cells were treated with soluble agents, the medium was changed 24 hours after the transfection. Cells were then treated with appropriate concentrations of bpV [potassium bisperoxo(1,1 0-phenanthroline) oxovanadate(V), Alexis Biochemicals, San Diego, Calif.], porcine insulin, or AICAR (5-aminoimidazole-4-carboxamide-1-β-D-ribofuranoside, Sigma, St. Louis, Mo.) in fresh media for another 15-18 hours. Secreted alkaline phosphatase (SEAP) and β-galactosidase activities were measured using Phospha-Light and Galacto-Star systems (Tropix Inc., Bedford, Mass.), respectively.

Question: What does the source list for `NC(=O)c1ncn([C@@H]2O[C@H](CO)[C@@H](O)[C@H]2O)c1N` [AICAR, 5-aminoimidazole-4-carboxamide-1-β-D-ribofuranoside]?
Answer: induced PEPCK IRS-SEAP activity, % of the stimulation ascribed to transfected AFXζ ([1]; HepG2, 200 μM AICAR): 20%; transcriptional activity of AFXζ on the PEPCK promoter, % of untreated cells ([2]; HepG2, 200 μM AICAR): 48%

Question: `O.O.O.OO.OO.[K+].[OH-].[V].c1cnc2c(c1)ccc1cccnc12` [bpV, potassium bisperoxo(1,1 0-phenanthroline) oxovanadate(V)] was tested. Which “concentration with toxicity in HepG2 cells (reduction of control galactosidase activity)” value [3] did it give?
Answer: above 5 μM

Question: And the “AFXζ-induced PEPCK p-SEAP reporter activity” value ([2]; HepG2, 5 μM bpV)?
Answer: below the basal level

Question: And the “lowest concentration repressing AFXζ-induced PEPCK p-SEAP reporter gene activity” value ([2]; HepG2, 15-18 hours)?
Answer: 0.5 µM

Question: Which “AFXζ-induced PEPCK IRS-SEAP reporter activity” value ([1]; HepG2, 200 nM insulin) does the source give for “insulin: porcine insulin used to treat transfected HepG2 cells” here?
Answer: to the basal level

Question: And the “PEPCK IRS-SEAP activity” value ([1]; HepG2 cells in which exogenous AFXζ had not been introduced)?
Answer: repressed

Question: What about the “induced PEPCK p-SEAP activity compared with the untreated cells” value ([2]; HepG2, increasing concentrations of insulin, 15-18 hours) of the same molecule?
Answer: 50%

Reference: US20030096957A1, “AFX (zeta) transcription factor splice form” (priority 2001, published 2003)
